Data taken from ChEMBL document CHEMBL1149507, “Synthesis, structure, and bioactivity of N'-substituted benzylidene-3,4,5-trimethoxybenzohydrazide and 3-acetyl-2-substituted phenyl-5-(3,4,5-trimethoxyphenyl)-2,3-dihydro-1,3,4-oxadiazole derivatives” (Bioorg Med Chem Lett, 2006).

Legend:
PC-3 [1] = test: Antiproliferative activity against human PC3 cell line at 5 uM by MTT assay; format: functional
BGC-823 [2] = test: Antiproliferative activity against human BGC823 cell line at 1 uM by MTT assay; format: functional
Bcap37 [3] = test: Antiproliferative activity against human Bcap37 cell line at 5 uM by MTT assay; format: functional
PC-3 [4] = test: Antiproliferative activity against human PC3 cell line at 1 uM by MTT assay; format: functional
BGC-823 [5] = test: Antiproliferative activity against human BGC823 cell line at 5 uM by MTT assay; format: functional
Bcap37 [6] = test: Antiproliferative activity against human Bcap37 cell line at 1 uM by MTT assay; format: functional
PC-3 [7] = test: Antiproliferative activity against human PC3 cell line by MTT assay; format: functional, cell-based

Structure (SMILES) | inhibition at 5 µM (PC-3 [1]) | inhibition at 1 µM (BGC-823 [2]) | inhibition at 5 µM (Bcap37 [3]) | inhibition at 1 µM (PC-3 [4]) | inhibition at 5 µM (BGC-823 [5]) | inhibition at 1 µM (Bcap37 [6]) | IC50 (PC-3 [7])
COc1cc(C(=O)N/N=C/c2ccc(C(F)(F)F)cc2)cc(OC)c1OC | 61.6% | 47.4% | 65.6% | 59.9% | 56.3% | 61.8% | 
COc1ccc(OC)c(/C=N/NC(=O)c2cc(OC)c(OC)c(OC)c2)c1 | 51.7% | 0.1% | 0% | 30.9% | 10.1% | 0% | 
COc1cc(C(=O)N/N=C/c2ccc(Cl)c(Cl)c2)cc(OC)c1OC | 31.6% | 29.6% | 0.6% | 13.5% | 32.7% | 0.1% | 
COc1cc(C2=NN(C(C)=O)C(c3cc(Cl)cc(Cl)c3)O2)cc(OC)c1OC (configuration not stated) | 93.9% | 0% | 1.3% | 52.7% | 6.6% | -1.1% | 1700 nM
COc1cc(C(=O)N/N=C/c2ccc(F)c(F)c2)cc(OC)c1OC | 43.7% | 33.1% | 68.2% | 35.1% | 51.9% | 58.5% | 
COc1cc(C2=NN(C(C)=O)C(c3cc(OC)c(OC)c(OC)c3)O2)cc(OC)c1OC (configuration not stated) | 0.1% | -1.8% | 5.4% | -1.8% | -1.4% | 5.1% | 
COc1cc(C(=O)N/N=C/c2ccc(F)cc2)cc(OC)c1OC | 82.8% | 50.9% | 55.5% | 76% | 61.1% | 50.2% | 
COc1cc(C(=O)N/N=C/c2cccc(F)c2)cc(OC)c1OC | 64.1% | 13.6% | 49% | 53.5% | 44.8% | 38% | 
COc1ccc(/C=N/NC(=O)c2cc(OC)c(OC)c(OC)c2)c(OC)c1 | 22.2% | -6.9% | -0.1% | 10% | 3.6% | -3% | 
COc1cc(C2=NN(C(C)=O)C(c3cccc(C(F)(F)F)c3)O2)cc(OC)c1OC (configuration not stated) | 43.6% | 27.9% | 35.5% | 30.1% | 41.1% | 10.1% | 
COc1cc(C(=O)N/N=C/c2cc(Cl)cc(Cl)c2)cc(OC)c1OC | 46.3% | -7.5% | 3.6% | 22.1% | 9.2% | -5.4% | 
COc1cc(C2=NN(C(C)=O)C(c3ccc(Cl)c([N+](=O)[O-])c3)O2)cc(OC)c1OC (configuration not stated) | 61.4% | -2.3% | 1% | 43.3% | 0% | -2.9% | 
COc1ccc(OC)c(C2OC(c3cc(OC)c(OC)c(OC)c3)=NN2C(C)=O)c1 (configuration not stated) | 43.2% | 0.4% | 2.3% | 37.2% | 18.2% | -3.8% | 
COc1cc(C2=NN(C(C)=O)C(c3ccc(F)c(F)c3)O2)cc(OC)c1OC (configuration not stated) | 46.9% | 18.3% | 2.3% | 35.5% | 21.6% | -1.3% | 
COc1cc(C2=NN(C(C)=O)C(c3c(Cl)cccc3Cl)O2)cc(OC)c1OC (configuration not stated) | -2.2% | -1.4% | 45.8% | 5.1% | 15.9% | 9.3% | 
COc1cc(C(=O)N/N=C/c2ccccc2C(F)(F)F)cc(OC)c1OC | 52.9% | 22.1% | 80% | 45% | 35.6% | 56.8% | 
COc1cc(C(=O)N/N=C/c2ccc(Cl)c([N+](=O)[O-])c2)cc(OC)c1OC | 42.3% | -5.8% | 9.6% | 32.1% | 2.3% | -4.4% | 
COc1cc(C2=NN(C(C)=O)C(c3cccc(OC)c3OC)O2)cc(OC)c1OC (configuration not stated) | 58.2% | 3.8% | 2.8% | 35% | 17.5% | 0.1% | 
COc1cc(C2=NN(C(C)=O)C(c3ccc(C(F)(F)F)cc3)O2)cc(OC)c1OC (configuration not stated) | -0.7% | 4.2% | 14.2% | -11% | 3.4% | -3.5% | 
COc1cc(C2=NN(C(C)=O)C(c3ccccc3F)O2)cc(OC)c1OC (configuration not stated) | 31.6% | 29.6% | -2% | 13.5% | 32.8% | -1.5% | 
COc1cc(/C=N/NC(=O)c2cc(OC)c(OC)c(OC)c2)cc(OC)c1OC | 48.3% | -5% | 13.6% | 8.5% | 22.9% | 11.8% | 
COc1cc(C(=O)N/N=C/c2ccccc2F)cc(OC)c1OC | 81.8% | 51.6% | 81.8% | 70.6% | 76.5% | 58.9% | 
COc1cc(C2=NN(C(C)=O)C(c3ccc(Cl)c(Cl)c3)O2)cc(OC)c1OC (configuration not stated) | 26.1% | -0.8% | 0% | 28.1% | 3.1% | -3.2% | 
COc1cc(C(=O)N/N=C/c2cccc(C(F)(F)F)c2)cc(OC)c1OC | 79.8% | 17.7% | 15.5% | 51% | 33.8% | 8.3% | 
COc1cc(C(=O)N/N=C/c2c(Cl)cccc2Cl)cc(OC)c1OC | 52.1% | 0.9% | 2.9% | 43% | 27.8% | -7.2% | 
COc1cc(C2=NN(C(C)=O)C(c3cccc(F)c3)O2)cc(OC)c1OC (configuration not stated) | 43.5% | 14.7% | 23.8% | 16.5% | 37.7% | 14% | 
COc1cc(C2=NN(C(C)=O)C(c3ccc(F)cc3)O2)cc(OC)c1OC (configuration not stated) | 0.1% | -0.4% | -0.1% | 0% | 13.3% | -1.4% | 
COc1ccc(C2OC(c3cc(OC)c(OC)c(OC)c3)=NN2C(C)=O)c(OC)c1 (configuration not stated) | 92% | 6.3% | 2.5% | 69.5% | -3.1% | -0.3% | 300 nM
COc1cccc(/C=N/NC(=O)c2cc(OC)c(OC)c(OC)c2)c1OC | 67% | -0.1% | 12.3% | 53.2% | 14.2% | -2.3% | 
COc1cc(C2=NN(C(C)=O)C(c3ccccc3C(F)(F)F)O2)cc(OC)c1OC (configuration not stated) | 15.2% | 31.8% | 16.2% | -11% | 34.8% | -1.2% | 
